Data taken from publication PMC9863109 (Viruses, 2023).

What was measured:
[1] = cynomolgus monkey, in vivo; cited from earlier work
monkeypox virus = conditions: cynomolgus monkey, in vivo; cited from earlier work
cynomolgus monkeys = conditions: cynomolgus monkey, in vivo; cited from earlier work
in vivo = conditions: both, ICR, mouse
[2] = mouse, in vivo
BALB/c mice = conditions: mouse, in vivo; cited from earlier work
animals = conditions: in vivo, po; cited from earlier work
ectromelia virus [3] = conditions: mouse, in vivo, po; cited from earlier work
ectromelia virus [4] = conditions: mouse, in vivo; cited from earlier work
[5] = mouse, in vivo; cited from earlier work
NZW rabbits = conditions: rabbit, in vivo; cited from earlier work
Wistar rats [6] = conditions: rat, in vivo
ICR outbred mice [7] = conditions: mouse, in vivo
[8] = system: monkeypox virus strain V79-1-005; conditions: mouse, in vivo, po; cited from earlier work
[9] = system: Ind-3a variola virus strain; conditions: mouse, in vivo, po; cited from earlier work
[10] = system: monkeypox virus strain V79-1-005; conditions: in vivo, po; cited from earlier work
Wistar rats [11] = conditions: rat, in vivo; remark: listed apart in the source
ICR outbred mice [12] = conditions: mouse, in vivo; remark: listed apart in the source

## O=C(NN1C(=O)C2C3C=CC(C4CC34)C2C1=O)c1ccc(C(F)(F)F)cc1 (centres unmarked) [ST-246, N-{3,5-dioxo-4-azatetracyclo[5.3.2.0^2,6.0^8,10]dodec-11-en-4-yl}-4-(trifluoromethyl)benzamide]
[1]
  absolute oral bioavailability (Fabs): 31-77%
Monkeypox virus
  effective dose: 3 µg/g
Cynomolgus monkeys
  pathological processes: did not cause any pathological processes
In vivo; iv
  Tmax: 0.25 h
  half-life: 120 min
In vivo; iv, Cmax
  Cmax: 13200 ng/mL
In vivo; iv, maximum concentration (Cmax) of ST-246 in serum
  Cmax: 13200 ng/mL
In vivo; po
  Tmax: 3 h
  bioavailability: 12.1%
  half-life: 204 min
In vivo; po, Cmax
  Cmax: 15500 ng/mL
In vivo; po, maximum concentration (Cmax) of ST-246 in serum
  Cmax: 15500 ng/mL
[2]
  visible adverse reactions to i/v administration: no visible adverse reactions
BALB/c mice
  disorders or damage in the animals: no disorders or damage
animals
  animal death: did not cause death
Ectromelia virus [3]
  50% effective dose: 5.08 µg/g
Ectromelia virus [4]
  dose of optimal effectiveness: 100 µg/g
[5]
  T1/2: 2.2 h
  Tmax in serum: 4.5 h
  plasma Cmax: 44.0 µg/mL
NZW rabbits
  pathological effects: No pathological effects

## O=C(NNC(=O)C1C2C=CC(C3CC23)C1C(=O)O)c1ccc(C(F)(F)F)cc1 (centres unmarked) [NIOCH-14, 7-({[(4-trifluoromethyl)phenyl]formohydrazido}carbonyl)tricyclo[3.2.2.0^2,4]non-8-en-6-carboxylic acid]
Wistar rats [6]
  animal death: did not cause animal death
  effect on hematological parameters: no significant effect
ICR outbred mice [7]
  hazard class according to GOST 12.1.007-76: low-hazard compound
  macroscopic pathomorphological changes in organs: no macroscopic pathomorphological changes
[2]
  Absolute bioavailability Fabs: 22.8%
  time of maximum concentration of ST-246 in serum: 15 min
  visible adverse reactions to i/v administration: no visible adverse reactions
[8]
  virus production in the lungs: significantly reduced virus production in the lungs
[9]
  number of infected mice and virus production in the lungs: significantly reduced
Ectromelia virus [3]
  50% effective dose: 3.59 µg/g
[10]
  signs of disease: no signs of disease
Wistar rats [11]
  changes in hematological parameters: no significant changes
  effect on animals' appearance and behavior: no significant effect
ICR outbred mice [12]
  WBC differential: remained unchanged
  effect on animals' appearance and behavior: no significant effect
  increase of platelet count vs. control group 1: 28%
  reduction of WBC count vs. control group 1: 23%
